From paper PMC11562704, “Volatiles extracted from Melaleuca Rugulosa (Link) Craven leaves: comparative profiling, bioactivity screening, and metabolomic analysis” (BMC Complementary Medicine and Therapies, 2024)
In brackets after ≈: the same amount, converted by molar mass.

Target: T1, Type 1 collagenase enzyme
T1 construct: gene colG; native collagenase preparation isolated from the bacterium; type 1 is normally a mixture of ColG and ColH
Test: FALGPA hydrolysis, ninhydrin absorbance at […] nm
Assay type: biochemical, Hathewaya histolytica
Details: FALGPA substrate; 50 mM tricine pH 7.4; 37 °C; 20 min preincubation

O=C(O)CN(CCN(CC(=O)O)CC(=O)O)CC(=O)O [EDTA]
IC50 ± SD (inhibition percentage (IP) ± SD) / Anti-collagenase: 315.12 ± 2.21 µg/mL (≈ 1080 µM)
